Data on one compound can be found in publication PMC5007466, “VCP recruitment to mitochondria causes mitophagy impairment and neurodegeneration in models of Huntington's disease” (Nature Communications, 2016).

The subject of data set [1] is R6/2 mice. The experiment in a line: VCP mitochondrial level, R6/2 mouse striatum. The format is in vivo. To be noted: R6/2, 3 mg kg^−1 per day from 5 to 9 weeks versus TAT, n=6. On the procedure: Cells were washed with cold PBS and incubated on ice for 30 min in a lysis buffer (250 mM sucrose, 20 mM HEPES-NaOH, pH 7.5, 10 mM KCl, 1.5 mM MgCl2, 1 mM EDTA, protease inhibitor cocktail and phosphatase inhibitor cocktail). Mouse brains were minced and homogenized in the lysis buffer and then placed on ice for 30 min. Collected cells or tissue were disrupted 20 times by repeated aspiration through a 25-gauge needle, followed by a 30-gauge needle. The homogenates were spun at 800 g for 10 min at 4 °C, and the resulting supernatants were spun at 10,000 g for 20 min at 4 °C. The pellets were washed with lysis buffer and spun at 10,000 g again for 20 min at 4 °C. The final pellets were suspended in lysis buffer containing 1% Triton X-100 and were mitochondrial-rich lysate fractions. The supernatant was centrifuged at 100,000 g, 4 °C, for 1 h, the pellets were suspended in lysis buffer containing 1% Triton X-100 as ER fractions. The final supernatant was cytosolic fractions. The mitochondrial proteins VDAC, the ER protein WFS1 and the cytosolic protein Enolase were used as loading controls for mitochondrial, ER and cytosolic fractions, respectively.
Male R6/2 mice and their wt littermates (4 weeks old) were purchased from Jackson Laboratories (Bar Harbor, ME; B6CBA-TgN (HD exon 1)62; JAX stock number: 006494). […]
Protein concentrations were determined by Bradford assay. […]

The test system of data set [2] is R6/2 mice. The experiment in a line: Hindlimb clasping (tail suspension test). Type of data set: in vivo, mouse. To be noted: R6/2, 8 to 11 weeks of age, 3 mg kg^−1 per day, n=15, versus TAT. On the procedure:
Male hemizygous R6/2 mice (Tg) and their age-matched wt littermates (5-week-old) were implanted with a 28-day osmotic pump (Alzet, Cupertino CA) containing TAT control peptide or HV-3 peptide, which delivered peptides to the mice at a rate of 3 mg kg^−1 per day. The first pump was implanted subcutaneously in the back of 5-week-old mice between the shoulders and replaced once, after 4 weeks.
Hindlimb clasping was assessed with the tail suspension test once a week from the ages 8 to 11 weeks in R6/2 mice. Mice were suspended by the tail for 60 s and the latency for the hindlimbs or all four paws to clasp was recorded using the score system[67]: Clasping over 10 s, score 3; 5–10 s, score 2; 0–5 s, score 1; 0 s, score 0.

A further data set relates to HD mouse striatal cells. Kind of data set: ER stress response (GRP78 western blot). The format is cell-based. Particulars: thapsigargin 1 μM or tunicamycin 10 μg/ml, 16 h, with HV-3 3 µM. The procedure:
mouse striatal cells were treated with thapsigargin (1μM) or tunicamycin (10μ g/ml) for 16 hours i n the presence or absence of HV -3 (3 µM). GRP78 total protein levels were determined by western blot analysis. Representative blots of three independent experiments are shown. Actin was used here as a loading control. (b) Tw e n t y -four hours of serum starvation was performed in HD mouse striatal cells.
Caspase-3 activity analysis was performed in the indicated groups. Data are mean ± SEM of three independent experiments. (c) Flag-VCP and GFP-LC3B were co-transfected into HdhQ7 striatal cells.
Total lysates were isolated after 36 hours of transfection. The GFP -LC3B levels were examined by western blot analysis. Actin was used as a loading control. Histogram: quantitation of GFP-LC3B total protein level. Data are mean ± SEM of three independent experiments.
(1 picture or pasted object on this page, not shown here)

Another data set has as its system C57Black mice. Kind of data set: Hematology of naive mice. To be noted: 3 mg/kg/day, 4 weeks. The format is in vivo, mouse. On the procedure:
Supplementary Figure 8 : Toxicity analysis of HV -3in naïve mice .
We performed a toxicity analysis of HV-3 in mice. Six -week-old C57Black mice were treated with saline or peptide HV-3 at 3mg/kg/day by Alzet pump implantation. After 4- week treatment, the plasma, blood and whole mouse bodies of mice were collected. Examination on blood chemistry (Supplementary Table 1), hematology (Supplementary Table 2) and general necropsy of mice were performed at the Animal Diagnostic Laboratory at Stanford University. The experimenter who conducted the analysis was blind to the treatment groups. Automated hematology was performed on the Sysmex XT-2000iV analyzer system. Blood smears were made for all full CBC samples and reviewed by a medical technologist. Manual differentials were performed as indicated by species and automated analysis. Chemistry analysis was performed on the Siemens Dimension Xpand analyzer. […]
Student’s t test. Four-week sustained treatment with HV-3 by pump implantation had no effects on blood chemistry (Supplementary Table 1), hematology (Supplementary Table 2), and gross necropsy of naïve mice when compared to mice treated with saline. […]
Table 2: Effects of 4-w eek treatment w ith HV-3 on hematology of naïve mice […]
Mean SD Mean SD p-value unit n

With `CSCC[C@H](NC(=O)[C@@H](NC(=O)[C@H](CC(C)C)NC(=O)[C@@H](NC(=O)[C@H](Cc1c[nH]cn1)NC(=O)CCCCCNC(=O)[C@H](CCCNC(=N)N)NC(=O)[C@H](CCCNC(=N)N)NC(=O)[C@H](CCCNC(=N)N)NC(=O)[C@H](CCC(N)=O)NC(=O)[C@H](CCCNC(=N)N)NC(=O)[C@H](CCCNC(=N)N)NC(=O)[C@H](CCCCN)NC(=O)[C@H](CCCCN)NC(=O)[C@H](CCCNC(=N)N)NC(=O)CNC(=O)[C@@H](N)Cc1ccc(O)cc1)C(C)C)C(C)C)C(=O)N[C@@H](CS)C(=O)N[C@@H](C)C(=O)N[C@H](C(N)=O)[C@@H](C)O` [HV-3], the “VCP translocation to mitochondria in striatum” value in the data set on R6/2 mice [1] is recorded as “suppressed the VCP translocation to mitochondria”. Also, the “severity of clasping behaviour” value in the data set with R6/2 mice [2] was “significantly lower over the 4-week observation period”. In the data set on HD mouse striatal cells, the “ER stress response (GRP78)” value is “no effect on the ER stress response”. In the data set with C57Black mice (mean, n = 4/group), the Eosinophils is given as 37.00, the HCT is 44.60%, the Hgb was 13.93 gm/dL and the IRF stood at 53.97%. In the data set on C57Black mice (mean, n = 4/group), the Lymphocytes turned out to be 1645.00, the MCH worked out at 14.90 pg, the MCHC is 31.27 g/dL and the MCV was found to be 47.67 fL. In the data set on C57Black mice (mean, n = 4/group), this compound yielded a Monocytes of 182.33, a Neutrophils of 1525.67, a Platelet count of 1021.33 K/uL and an RBC of 9.37 M/uL. In the data set on C57Black mice (mean, n = 4/group), the RDW came out at 21.77%, the “Reticulocyte Count” value turned out to be 4.30% and the WBC is 3.39 K/uL. Further, in the data set on C57Black mice (versus saline), the “hematology (overall)” value is reported as “no effects”.
